# Experimental data: patent publication US12480163B2, “Compositions and methods for identification assessment, prevention, and treatment of Ewing sarcoma using TP53 dependency biomarkers and modulators” (Dana-Farber Cancer Institute, Inc., priority 2018, dated 2025)
# “Also recorded” adds a separate entry of the source.
# Tests used:
# [1] = tested on: TP53 wild-type Ewing sarcoma cell lines; test: CellTiter-Glo cell viability assay, TP53 wild-type Ewing sarcoma cell lines; format: cell-based; conditions: TP53 wild-type Ewing sarcoma cell lines, treated for 3 d, micromolar concentrations
# Experimental: (§1) Cell viability was assessed using the CellTiter-Glo® Luminescent Cell Viability Assay (Promega). Viability assays were performed after Ewing sarcoma cell lines were infected with sgRNAs targeting TP53, MDM2, MDM4, PPM1D, or USP7 or treated with ATSP-7041, ATSP-7342, GSK2830371, P5091, XL-188, or vehicle control.
# p53-MDM4 complex = target: T1, p53-MDM4 complex (Homo sapiens, UniProt O15151); test: MDM4 immunoprecipitation from TC32 cell lysates, p53 and MDM4 Western blot; format: binding; conditions: TC32 lysates after RG7388 pre-treatment, 20 μM compound
# T1 construct: endogenous in cells; host or cells: TC32 Ewing sarcoma cells (TP53 wild-type), lysed in NP-40 buffer
# T1 sequence (O15151 1-490): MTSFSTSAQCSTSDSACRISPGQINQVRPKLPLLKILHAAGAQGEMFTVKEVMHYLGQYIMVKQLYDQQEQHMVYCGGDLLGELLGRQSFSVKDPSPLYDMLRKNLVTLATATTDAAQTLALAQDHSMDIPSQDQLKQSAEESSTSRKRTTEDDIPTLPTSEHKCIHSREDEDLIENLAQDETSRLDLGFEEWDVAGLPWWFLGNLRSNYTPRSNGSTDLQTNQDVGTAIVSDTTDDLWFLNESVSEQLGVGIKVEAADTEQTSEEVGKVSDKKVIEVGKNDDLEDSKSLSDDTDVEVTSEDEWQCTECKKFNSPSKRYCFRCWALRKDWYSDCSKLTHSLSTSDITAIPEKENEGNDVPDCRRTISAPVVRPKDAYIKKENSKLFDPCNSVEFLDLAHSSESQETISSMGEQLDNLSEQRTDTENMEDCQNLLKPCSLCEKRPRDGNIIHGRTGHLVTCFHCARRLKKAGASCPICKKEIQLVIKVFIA
# Experimental: g. Immunoprecipitation Experiments
# Five million TC32 cells were treated with either 10 μM RG7388 or vehicle control for 4 h. Cells were lysed in buffer A (150 mM NaCl, 50 mM Tris, and 0.5% NP-40, pH 7.4) and combined with anti-MDM4 antibody (A300-287A; Bethyl Laboratories) in the presence of 20 μM RG7388, ATSP-7041, or vehicle control in a total volume of 1 ml, rotating at 4° C. for 16 h. Subsequently, 50 μl washed Protein AG beads (sc-2003; Santa Cruz) were added and the mixture was incubated for 1 h rotating at 4° C. Beads were washed three times in buffer A, and protein complexes were eluted by boiling in NuPage® LDS Sample Buffer (NP0007; Invitrogen) supplemented with DTT. Samples were analyzed by Western blot with antibodies against p53 DO-1 (sc-126; Santa Cruz) and MDM4 (A300-287A; Bethyl Laboratories).
# TP53 knockout cells = test: CellTiter-Glo cell viability assay, TP53 knockout cells; format: cell-based
# Experimental: Lentivirus was produced by transfecting HEK-293T cells with the pLentiV2 vector (Addgene plasmid 52961) and the packaging plasmids pCMV8.9 and pCMV-VSVG according to the FuGENER 6 (Roche) protocol. For lentiviral transduction, Ewing sarcoma cells were incubated with 2 ml of virus and 8 μg/ml of polybrene (Sigma-Aldrich). Cells were selected in puromycin (Sigma-Aldrich) 48 h after infection for single knockout experiments. For dual knockout experiments, PPM1D, USP7, and MDM4 sgRNA sequences were cloned into a LentiV2 vector with a blasticidin selection marker (Addgene plasmid 83480).
# d. sgRNA Sequences sgRNAs were designed using the Broad Institute's sgRNA designer tool. The following sequences were used as control or to target the respective genes: control sgRNA, 5′-[…]-3′ (SEQ ID NO: 125); sgMDM2 2: 5′-[…]-3′ (SEQ ID NO: 126); sgMDM2 5: 5′-[…]-3′ (SEQ ID NO: 127); sgMDM4 4: 5′-[…]-3′ (SEQ ID NO: 128); sgMDM4 6: 5′-[…]-3′ (SEQ ID NO: 129); sgUSP7 1: 5′-[…]-3′ (SEQ ID NO: 130); sgUSP7 2: 5′-ACCATACCCAAATTATTC CG-3′ (SEQ ID NO: 131); sgPPMID 1: 5′-[…]-3′ (SEQ ID NO: 132); sgPPMID 2: 5′-[…]-3′ (SEQ ID NO: 133); sgTP53 1: 5′-[…]-3′ (SEQ ID NO: 134); sgTP53 2: 5′-[…]-3′ (SEQ ID NO: 135); sgTP53 4: 5′-[…]-3′ (SEQ ID NO: 136); and sgTP53 5: 5′-[…]-3′ (SEQ ID NO: 137). e. Protein Extraction and Immunoblotting
# as §1
# [2] = tested on: TP53 wild-type Ewing sarcoma cell lines; test: Annexin V staining, flow cytometry (cell death); format: cell-based; conditions: TC32 and CHLA258; 2 d ATSP-7041 (2 μM, 4 μM) or P5091 (6.5 μM, 8 μM), 3 d GSK2830371 (15 μM)
# Experimental: Cell death was measured using flow cytometric analysis of Annexin V staining according to the manufacturer's instructions (eBioscience). Data analysis was completed using Flowjo 7.6 software (Treestar).
# [3] = tested on: TP53 mutated Ewing sarcoma cell lines; test: CellTiter-Glo cell viability assay, TP53 mutated Ewing sarcoma cell lines; format: cell-based; conditions: treated for 3 d
# Experimental: as §1
# [4] = tested on: TC32, TC138, and CHLA258 cells; test: Drug synergy analysis, Chou-Talalay combination index for Loewe additivity; format: cell-based; conditions: CI<1 synergistic; for combination index, ATSP-7041 combined with P5091: CI>1 antagonistic
# Experimental: as §1
# k. Drug Synergy Analysis Chou-Talalay Combination Index for Loewe Additivity
# Loewe Additivity is a dose-effect approach that estimates the effect of combining two drugs based on the concentration of each individual drug that produces the same quantitative effect (Goldoni and Johansson (2007) Toxicol. In Vitro 21:759-769). […] They introduced the combination index (CI) scores to estimate the interaction between the two drugs. If CI<1, the drugs have a synergistic effect, and if CI>1, the drugs have an antagonistic effect. CI=1 means the drugs have an additive effect.
# [5] = TC32, TC138, CHLA258, 3 d, CI=1 additive
smiles,measurement,setting,value
"CC(=O)N[C@@H](CC(C)C)C(=O)N[C@H](C(=O)N[C@@H](Cc1ccccc1)C(=O)N[C@]1(C)CCCCCCC=CCCC[C@@](C)(C(=O)N[C@@H](CO)C(=O)N[C@@H](C)C(=O)N[C@@H](C)C(N)=O)NC(=O)[C@H](CC2CCC2)NC(=O)[C@H](CCC(N)=O)NC(=O)[C@H](C)NC(=O)[C@H](Cc2c[nH]c3ccccc23)NC(=O)[C@H](Cc2ccc(O)cc2)NC(=O)[C@H](CCC(=O)O)NC1=O)[C@@H](C)O [ATSP-7041, Ac-Leu17-Thr-Phe-cyclo(R8-Glu-Tyr-Trp-Ala-Gln-Cba-S5)-Ser-Ala-Ala30-NH2]","cell viability, normalized to vehicle control",[1],selectively reduced the viability
same,disruption of p53-MDM4 complex (MDM4 immunoprecipitation),p53-MDM4 complex,partial disruption of p53-MDM4 complex; also recorded: decreased the level of p53-MDM4 interaction
same,effect of TP53 knockout on the cytotoxic effect of the compound (viability),TP53 knockout cells,fully rescues the cytotoxic effect
same,cell death measured by Annexin V staining,[2],triggers cell death; also recorded: induction of cell death
same,"cell viability, normalized to vehicle control",[3],resistant
same,"combination index, ATSP-7041 combined with P5091","[4]; CHLA258, 5 d, CI=1 additive",additivity
same,"combination index, ATSP-7041 combined with doxorubicin",[4]; [5],additivity or synergy
same,"combination index, ATSP-7041 combined with etoposide",[4]; [5],additivity or synergy
same,"combination index, ATSP-7041 combined with vincristine",[4]; [5],additivity or synergy
same,"combination index, ATSP-7041 combined with GSK2830371","[4]; TC32, TC138, and CHLA258, 3 d",strong synergy
same,"combination index, ATSP-7041 combined with P5091","[4]; TC32 and TC138, 5 d, CI=1 additive",synergy
